Patent US20150218212A1, “FLUORINATED EPOXYKETONE-BASED TETRAPEPTIDE COMPOUNDS AND USES THEREOF AS PROTEASOME INHIBITORS” (FLUORINOV PHARMA INC., priority 2012, published 2015)

Legend:
Assay type in all cases: cell-based, human
NCI-H23 = assay: NCI screening panel, NCI-H23 (Non-Small Cell Lung Cancer)
Experimental: (§1) Representative compounds of Formula I were screened using the National Cancer Institute (NCI) screening panel, which consists of a panel of human tumor cell lines, representing leukemia, melanoma, and cancers of the lung, colon, ovary, breast, prostate and renal system.
(§2) After 24 h, two plates of each cell line are fixed in situ with TCA, to represent a measurement of the cell population for each cell line at the time of drug addition (Tz). Experimental drugs are solubilised in dimethyl sulfoxide at 400-fold the desired final maximum test concentration and stored frozen prior to use. At the time of drug addition, an aliquot of frozen concentrate is thawed and diluted to twice the desired final maximum test concentration with complete medium containing 50 μg/mL gentamicin. Additional four, 10-fold or ½ log serial dilutions are made to provide a total of five drug concentrations plus control. Aliquots of 100 μl of these different drug dilutions are added to the appropriate microtiter wells already containing 100 μl of medium, resulting in the required final drug concentrations.
(§3) Following drug addition, the plates are incubated for an additional 48 h at 37° C., 5% CO2, 95% air, and 100% relative humidity. For adherent cells, the assay is terminated by the addition of cold TCA (trichloroacetic acid). Cells are fixed in situ by the gentle addition of 50 μl of cold 50% (w/v) TCA (final concentration, 10% TCA) and incubated for 60 minutes at 4° C. The supernatant is discarded, and the plates are washed five times with tap water and air dried. Sulforhodamine B (SRB) solution (100 μl) at 0.4% (w/v) in 1% acetic acid is added to each well, and plates are incubated for 10 minutes at room temperature. After staining, unbound dye is removed by washing five times with 1% acetic acid and the plates are air dried. Bound stain is subsequently solubilised with 10 mM trizma base, and the absorbance is read on an automated plate reader at a wavelength of 515 nm. For suspension cells, the methodology is the same except that the assay is terminated by fixing settled cells at the bottom of the wells by gently adding 50 μl of 80% TCA (final concentration, 16% TCA). Using the seven absorbance measurements [time zero, (Tz), control growth, (C), and test growth in the presence of drug at the five concentration levels (Ti)], the percentage growth is calculated at each of the drug concentrations levels. Percentage growth inhibition is calculated as: [(Ti−Tz)/(C−Tz)]×100 for concentrations for which Ti>/=Tz and [(Ti−Tz)/Tz]×100 for concentrations for which Ti<Tz.
(§4) Three dose response parameters are calculated for each experimental agent. Growth inhibition of 50% (GI50) is calculated from [(Ti−Tz)/(C−Tz)]×100=50, which is the drug concentration resulting in a 50% reduction in the net protein increase (as measured by SRB staining) in control cells during the drug incubation. The drug concentration resulting in total growth inhibition (TGI) is calculated from Ti=Tz. The LC50 (concentration of drug resulting in a 50% reduction in the measured protein at the end of the drug treatment as compared to that at the beginning) indicating a net loss of cells following treatment is calculated from [(Ti−Tz)/Tz]×100=−50. Values are calculated for each of these three parameters if the level of activity is reached. However, if the effect is not reached or is exceeded, the value for that parameter is expressed as greater or less than the maximum or minimum concentration tested.

PC-3 = assay: NCI screening panel, PC-3 (Prostate Cancer)
Experimental: as §1, §2, §3, §4

786-0 = assay: NCI screening panel, 786-0 (Renal Cancer)
Experimental: as §1, §2, §3, §4

COLO 205 = assay: NCI screening panel, COLO 205 (Colon Cancer)
Experimental: as §1, §2, §3, §4

MCF7 = assay: NCI screening panel, MCF7 (Breast Cancer)
Experimental: as §1, §2, §3, §4

LOX IMVI = assay: NCI screening panel, LOX IMVI (Melanoma)
Experimental: as §1, §2, §3, §4

RPMI-8226 = assay: NCI screening panel, RPMI-8226 (Leukemia)
Experimental: as §1, §2, §3, §4

BT-549 = assay: NCI screening panel, BT-549 (Breast Cancer)
Experimental: as §1, §2, §3, §4

NCI-H322M = assay: NCI screening panel, NCI-H322M (Non-Small Cell Lung Cancer)
Experimental: as §1, §2, §3, §4

SW-620 = assay: NCI screening panel, SW-620 (Colon Cancer)
Experimental: as §1, §2, §3, §4

OVCAR-8 = assay: NCI screening panel, OVCAR-8 (Ovarian Cancer)
Experimental: as §1, §2, §3, §4

HT29 = assay: NCI screening panel, HT29 (Colon Cancer)
Experimental: as §1, §2, §3, §4

HL-60(TB) = assay: NCI screening panel, HL-60(TB) (Leukemia)
Experimental: as §1, §2, §3, §4

UACC-62 = assay: NCI screening panel, UACC-62 (Melanoma)
Experimental: as §1, §2, §3, §4

OVCAR-5 = assay: NCI screening panel, OVCAR-5 (Ovarian Cancer)
Experimental: as §1, §2, §3, §4

RXF 393 = assay: NCI screening panel, RXF 393 (Renal Cancer)
Experimental: as §1, §2, §3, §4

M14 = assay: NCI screening panel, M14 (Melanoma)
Experimental: as §1, §2, §3, §4

A498 = assay: NCI screening panel, A498 (Renal Cancer)
Experimental: as §1, §2, §3, §4

SR = assay: NCI screening panel, SR (Leukemia)
Experimental: as §1, §2, §3, §4

## CC(C)C[C@H](NC(=O)[C@H](COC(F)F)NC(=O)CN1CCOCC1)C(=O)N[C@@H](Cc1ccccc1)C(=O)N[C@@H](CC(C)C)C(=O)[C@@]1(C)CO1 [Example 2, (2S)-N-[(1S)-1-benzyl-2-[[(1S)-3-methyl-1-[(2R)-2-methyloxirane-2-carbonyl]butyl]-amino]-2-oxo-ethyl]-2-[[(2S)-3-(difluoromethoxy)-2-[(2-morpholinoacetyl)amino]propanoyl]amino]-4-methyl-pentanamide]
NCI-H23
  Log10GI50: −7.73
  Log10LC50: >−4.00
  Log10TGI50: −6.67
PC-3
  Log10GI50: −7.57
  Log10LC50: −5.62
  Log10TGI50: −6.93
786-0
  Log10GI50: −7.09
  Log10LC50: >−4.00
  Log10TGI50: −6.01
COLO 205
  Log10GI50: −7.44
  Log10LC50: −5.93
  Log10TGI50: −6.69
MCF7
  Log10GI50: <-8.00
  Log10LC50: >−4.00
  Log10TGI50: −4.94
LOX IMVI
  Log10GI50: <−8.00
  Log10LC50: −7.21
  Log10TGI50: −7.62
RPMI-8226
  Log10GI50: −7.98
  Log10LC50: >−4.00
  Log10TGI50: −7.24
BT-549
  Log10GI50: <−8.00
  Log10LC50: −6.84
  Log10TGI50: −7.48
NCI-H322M
  Log10GI50: −7.01
  Log10LC50: −5.35
  Log10TGI50: −6.43
SW-620
  Log10GI50: <−8.00
  Log10LC50: >−4.00
  Log10TGI50: −5.92
OVCAR-8
  Log10GI50: −7.22
  Log10LC50: >−4.00
  Log10TGI50: −6.25
HT29
  Log10GI50: <−8.00
  Log10LC50: >−4.00
  Log10TGI50: −7.04
HL-60(TB)
  Log10GI50: −7.55
  Log10LC50: >−4.00
  Log10TGI50: −6.11
UACC-62
  Log10GI50: −7.59
  Log10LC50: >−4.00
  Log10TGI50: −6.82
OVCAR-5
  Log10GI50: −7.47
  Log10LC50: −4.54
  Log10TGI50: −6.70
RXF 393
  Log10GI50: −7.52
  Log10LC50: −6.41
  Log10TGI50: −6.98
M14
  Log10GI50: −7.39
  Log10LC50: >−4.00
  Log10TGI50: −6.26
A498
  Log10GI50: −7.67
  Log10LC50: −6.23
  Log10TGI50: −7.12
SR
  Log10GI50: <−8.00
  Log10LC50: >−4.00
  Log10TGI50: >−4.00

## CC(C)C[C@H](NC(=O)[C@H](COC(F)F)NC(=O)CN1CCOCC1)C(=O)N[C@@H](Cc1ccccc1)C(=O)N[C@@H](Cc1ccccc1)C(=O)[C@@]1(C)CO1 [Example 3, (2S)-N-[(1S)-1-benzyl-2-[[(1S)-1-benzyl-2-[(2R)-2-methyloxiran-2-yl]-2-oxo-ethyl]amino]-2-oxo-ethyl]-2-[[(2S)-3-(difluoromethoxy)-2-[(2-morpholinoacetyl)-amino]propanoyl]amino]-4-methyl-pentan-amide]
NCI-H23
  Log10GI50: <−8.00
  Log10LC50: −4.33
  Log10TGI50: −6.69
PC-3
  Log10GI50: −7.73
  Log10LC50: −6.09
  Log10TGI50: −7.04
786-0
  Log10GI50: −7.22
  Log10LC50: −4.14
  Log10TGI50: −5.77
COLO 205
  Log10GI50: −7.73
  Log10LC50: −4.53
  Log10TGI50: −6.48
MCF7
  Log10GI50: <−8.00
  Log10LC50: >−4.00
  Log10TGI50: −4.65
LOX IMVI
  Log10GI50: <−8.00
  Log10LC50: −7.13
  Log10TGI50: −7.71
RPMI-8226
  Log10GI50: <−8.00
  Log10LC50: >−4.00
  Log10TGI50: −7.48
BT-549
  Log10GI50: <−8.00
  Log10LC50: −4.21
  Log10TGI50: −7.32
NCI-H322M
  Log10GI50: −7.12
  Log10LC50: −5.14
  Log10TGI50: −6.44
SW-620
  Log10GI50: <−8.00
  Log10LC50: −4.27
  Log10TGI50: −6.63
OVCAR-8
  Log10GI50: −7.25
  Log10LC50: >−4.00
  Log10TGI50: −6.29
HT29
  Log10GI50: <−8.00
  Log10LC50: −4.44
  Log10TGI50: −6.25
HL-60(TB)
  Log10GI50: −7.83
  Log10LC50: >−4.00
  Log10TGI50: −6.67
UACC-62
  Log10GI50: −7.93
  Log10LC50: −6.13
  Log10TGI50: −7.17
OVCAR-5
  Log10GI50: −7.42
  Log10LC50: >−4.00
  Log10TGI50: −5.86
RXF 393
  Log10GI50: −7.64
  Log10LC50: −6.58
  Log10TGI50: −7.18
M14
  Log10GI50: −7.69
  Log10LC50: >−4.00
  Log10TGI50: −6.54
A498
  Log10GI50: −7.97
  Log10LC50: −6.34
  Log10TGI50: −7.26
SR
  Log10GI50: <−8.00
  Log10LC50: >−4.00
  Log10TGI50: >−4.00
